# Like-named read-outs stand apart in the source and are kept apart here.
# Tests used:
# NCI-H1703 cells = test: GLS Cell Proliferation Assay (NCI-H1703); assay type: cell-based, human
# Excerpt: (§1) The following assays were used to measure the effects of the compounds of the present invention: a) GLS Enzyme Potency Assay; b) GLS Cell Potency Assay; c) GLS Cell Proliferation Assay; and d) Mouse Xenograft Model. During the description of the assays, generally: • i. The following abbreviations have been used: CO2=Carbon dioxide; DMEM=Dulbecco's Modified Eagle Medium; DMSO=Dimethyl sulphoxide; EDTA=Ethylenediaminetetraacetic acid; EGTA=Ethylene glycol tetraacetic acid; FCS=Foetal calf serum; h=Hour(s); NBS=Non-binding surface; SDS=Sodium dodecyl sulphate; r.t.=room temperature; TRIS=Tris(Hydroxymethyl)aminomethane. • ii. […]
# The ability of compounds to inhibit cell growth was measured using a 384 well plate NCI-H1703 cell proliferation assay. NCI-H1703 cells were grown in phenol red free RPMI1640, 10% FCS and 2 mM glutamine and seeded at a density of 750 cells per well in 40 μl of growth medium into clear-bottom 384 well assay plates (Corning product code 3712) and incubated for 24 h at 37° C., 5% CO2. […] DMSO concentration was maintained at 0.3% by back filling with DMSO solution. Plates were incubated for 5 days at 37° C., 5% CO2, Sytox Green and Saponin added to final concentration of 2 μM and 0.25% respectively and incubated for 6 h prior to analysis. Plates were read on an Acumen eX3 (TTP Labtech) using 488 nm excitation and FITC filter set (500-530 nm) for emission. IC50 values were calculated by curve fitting to max inhibition of day zero growth using GeneData software analysis.
# cellular GLS activity = cellular GLS activity (Homo sapiens (Human), UniProt O94925); test: GLS Cell Potency Assay (PC3 coupled assay measuring cellular glutamate depletion); assay type: cell-based; conditions: PC3 cells, 6 h incubation, cellular glutamate depletion; geometric mean where repeated; read-out: Assay b) GLS Cell Potency Assay IC50
# Excerpt: as §1
# Compounds were assessed for their potential to inhibit cellular GLS activity by use of a PC3 coupled assay measuring cellular glutamate depletion. […] DMSO concentration was maintained at 0.3% by back filling with DMSO solution. PC3 cells were grown in phenol free DMEM, 10% dialyzed FCS, 2 mM glutamine and following dispersal by trypsinisation were plated at 5.6×10^3 cells per well in 40 μl of growth medium directly into the 384 well assay plates containing dispensed compound. After incubation for 6 h at 37° C., 5% CO2 growth media was aspirated and cells lysed in 15 μl of buffer containing 10 mM TRIS pH7.4, 100 mM NaCl, 1 mM EDTA, 1 mM EGTA, 1 mM NaF, 20 mM Na4P2O7, 2 mM Na3VO4, 1% Triton X-100, 10% glycerol, 0.1% SDS and 0.5% deoxycholate.
# GLS1 = GLS1 (Homo sapiens (Human), UniProt O94925); test: GLS Enzyme Potency Assay (Glutamate Oxidase/AmplexRed coupled assay); assay type: biochemical; conditions: 6His tagged GLS protein (amino acids 63-669); geometric mean where repeated
# Excerpt: The following assays were used to measure the effects of the compounds of the present invention: a) GLS Enzyme Potency Assay; b) GLS Cell Potency Assay; c) GLS Cell Proliferation Assay; and d) Mouse Xenograft Model. During the description of the assays, generally: • i. The following abbreviations have been used: CO2=Carbon dioxide; DMEM=Dulbecco's Modified Eagle Medium; DMSO=Dimethyl sulphoxide; EDTA=Ethylenediaminetetraacetic acid; EGTA=Ethylene glycol tetraacetic acid; FCS=Foetal calf serum; h=Hour(s); NBS=Non-binding surface; SDS=Sodium dodecyl sulphate; r.t.=room temperature; TRIS=Tris(Hydroxymethyl)aminomethane. • ii. IC50 values were calculated using a smart fitting model in Genedata. […] Assay a): GLS Enzyme Potency Assay
# A Glutamate Oxidase/AmplexRed coupled assay was used to measure the ability of compounds to bind to and inhibit the activity of GLS1 in vitro. […] GLS1 was diluted to 2× working concentration and incubated at r.t. to allow the tetrameric/dimeric forms to reach steady state. Assay measurements were performed in buffer comprising 50 mM TRIS pH 7.8, 100 mM NaPO4, pH 7.8, 0.001% v/v Tween20. […] DMSO concentration was maintained at 2% by back filling with DMSO solution. […] 3 μL of 100 mM glutamine diluted in assay buffer was then added and the reaction incubated at r.t. for 60 minutes. […] An artefact version of the assay where the 6His tagged GLS protein and glutamine were replaced with assay buffer was also used to rule out non specific effects on the assay components.
# [1] = Homo sapiens, 120 h; NCI-H1703 cells, 5 days incubation; geometric mean where repeated; read-out: Assay c) GLS Cell Proliferation Assay
# Sequence of GLS1 (O94925 63-669): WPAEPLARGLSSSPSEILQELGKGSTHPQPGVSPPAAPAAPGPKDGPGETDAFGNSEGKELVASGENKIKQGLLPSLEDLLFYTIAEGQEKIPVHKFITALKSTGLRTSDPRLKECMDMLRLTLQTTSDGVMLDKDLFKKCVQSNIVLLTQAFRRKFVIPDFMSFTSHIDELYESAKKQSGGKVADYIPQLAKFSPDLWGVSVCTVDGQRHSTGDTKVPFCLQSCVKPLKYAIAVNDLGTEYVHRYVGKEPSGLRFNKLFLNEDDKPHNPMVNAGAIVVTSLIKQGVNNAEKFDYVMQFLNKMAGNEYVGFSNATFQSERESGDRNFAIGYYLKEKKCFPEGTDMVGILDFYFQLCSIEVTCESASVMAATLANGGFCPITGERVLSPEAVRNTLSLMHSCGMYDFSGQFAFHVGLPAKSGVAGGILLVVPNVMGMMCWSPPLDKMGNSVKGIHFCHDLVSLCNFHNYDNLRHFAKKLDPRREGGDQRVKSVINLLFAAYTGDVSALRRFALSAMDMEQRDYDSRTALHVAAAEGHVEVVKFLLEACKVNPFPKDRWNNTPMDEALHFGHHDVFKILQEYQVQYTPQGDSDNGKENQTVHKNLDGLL
# Sequence of cellular GLS activity (O94925 55-669): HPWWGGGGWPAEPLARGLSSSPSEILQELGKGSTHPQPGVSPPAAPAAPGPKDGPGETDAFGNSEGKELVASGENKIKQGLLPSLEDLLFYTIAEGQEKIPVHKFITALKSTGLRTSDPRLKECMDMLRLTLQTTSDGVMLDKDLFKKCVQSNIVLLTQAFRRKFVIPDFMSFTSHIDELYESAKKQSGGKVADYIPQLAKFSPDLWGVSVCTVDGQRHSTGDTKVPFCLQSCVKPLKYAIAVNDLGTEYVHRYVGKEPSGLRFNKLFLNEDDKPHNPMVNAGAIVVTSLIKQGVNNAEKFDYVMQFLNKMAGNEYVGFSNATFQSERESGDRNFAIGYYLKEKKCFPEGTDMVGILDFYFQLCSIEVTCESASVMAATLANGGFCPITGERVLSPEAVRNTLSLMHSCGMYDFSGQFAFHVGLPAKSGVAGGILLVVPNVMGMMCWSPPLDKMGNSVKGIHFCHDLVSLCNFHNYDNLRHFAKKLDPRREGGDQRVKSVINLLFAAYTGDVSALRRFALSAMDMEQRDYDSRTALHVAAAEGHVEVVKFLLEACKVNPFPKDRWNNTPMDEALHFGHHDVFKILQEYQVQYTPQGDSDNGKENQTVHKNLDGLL
Structure (SMILES),IC50 (NCI-H1703 cells; [1]) [nM],IC50 (cellular GLS activity) [nM],IC50 (GLS1) [nM],"IC50 (NCI-H1703 cells; NCI-H1703 cells, 5 days incubation; geometric mean where repeated; read-out: Assay c) GLS Cell Proliferation Assay) [nM]"
"COc1cc([C@@H](OC)C(=O)Nc2nnc(N[C@@H]3CCN(c4nccnn4)C3)s2)ccc1F [32(b), (2R)-2-(4-fluoro-3-methoxy-phenyl)-2-methoxy-N-[5-[[(3R)-1-(1,2,4-triazin-3-yl)pyrrolidin-3-yl]amino]-1,3,4-thiadiazol-2-yl]acetamide]",107,4.99,70.7,
"CCO[C@@H](C(=O)Nc1nnc(N[C@@H]2CCN(c3nccnn3)C2)s1)c1cccc(OC)c1 [27(b), (2R)-2-ethoxy-2-(3-methoxyphenyl)-N-[5-[[(3R)-1-(1,2,4-triazin-3-yl)pyrrolidin-3-yl]amino]-1,3,4-thiadiazol-2-yl]acetamide]",337,19.5,844,
"COc1ccc([C@@H](OC)C(=O)Nc2nnc(N[C@@H]3CCN(c4cccnn4)C3)s2)cc1OC [25(b), (2R)-2-(3,4-dimethoxyphenyl)-2-methoxy-N-[5-[[(3R)-1-pyridazin-3-ylpyrrolidin-3-yl]amino]-1,3,4-thiadiazol-2-yl]acetamide]",630,56.1,135,
"CO[C@H](C(=O)Nc1nnc(N[C@@H]2CCN(c3nccnn3)C2)s1)c1cccc(OC(F)F)c1 [19(a), (2S)-2-[3-(difluoromethoxy)phenyl]-2-methoxy-N-[5-[[(3R)-1-(1,2,4-triazin-3-yl)pyrrolidin-3-yl]amino]-1,3,4-thiadiazol-2-yl]acetamide]",,2.54,85.1,16.6
"COc1cccc([C@@H](OC)C(=O)Nc2nnc(N[C@@H]3CCN(c4cncnn4)C3)s2)c1 [21(b), (2R)-2-methoxy-2-(3-methoxyphenyl)-N-[5-[[(3R)-1-(1,2,4-triazin-6-yl)pyrrolidin-3-yl]amino]-1,3,4-thiadiazol-2-yl]acetamide]",1.78,0.35,46.9,
"COc1ccc([C@H](OC)C(=O)Nc2nnc(N[C@@H]3CCN(c4cccnn4)C3)s2)cc1OC [25(a), (2S)-2-(3,4-dimethoxyphenyl)-2-methoxy-N-[5-[[(3R)-1-pyridazin-3-ylpyrrolidin-3-yl]amino]-1,3,4-thiadiazol-2-yl]acetamide]",68.5,1.81,35.4,
"CO[C@@H](C(=O)Nc1nnc(N[C@@H]2CCN(c3nccnn3)C2)s1)c1cccc(OC(F)F)c1 [Example 6(b), (2R)-2-[3-(Difluoromethoxy)phenyl]-2-methoxy-N-[5-[[(3R)-1-(1,2,4-triazin-3-yl)pyrrolidin-3-yl]amino]-1,3,4-thiadiazol-2-yl]acetamide]",81.7,37,519,
"CCO[C@H](C(=O)Nc1nnc(N[C@@H]2CCN(c3nccnn3)C2)s1)c1ccccc1 [34(a), (2S)-2-ethoxy-2-phenyl-N-[5-[[(3R)-1-(1,2,4-triazin-3-yl)pyrrolidin-3-yl]amino]-1,3,4-thiadiazol-2-yl]acetamide]",93.1,12,88.1,
"COc1ccc([C@H](OC)C(=O)Nc2nnc(N[C@@H]3CCN(c4nccnn4)C3)s2)cc1 [Example 24, (2S)-2-methoxy-2-(4-methoxyphenyl)-N-[5-[[(3R)-1-(1,2,4-triazin-3-yl)pyrrolidin-3-yl]amino]-1,3,4-thiadiazol-2-yl]acetamide]",118,4.58,74.7,
"COc1cccc([C@@H](OC)C(=O)Nc2nnc(N[C@@H]3CCN(c4cccnn4)C3)s2)c1 [Example 5(b), (2R)-2-Methoxy-2-(3-methoxyphenyl)-N-[5-[[(3R)-1-pyridazin-3-ylpyrrolidin-3-yl]amino]-1,3,4-thiadiazol-2-yl]acetamide]",53.5,5.3,87.9,
"CCO[C@H](C(=O)Nc1nnc(N[C@@H]2CCN(c3nccnn3)C2)s1)c1cccc(OC)c1 [27(a), (2S)-2-ethoxy-2-(3-methoxyphenyl)-N-[5-[[(3R)-1-(1,2,4-triazin-3-yl)pyrrolidin-3-yl]amino]-1,3,4-thiadiazol-2-yl]acetamide]",11.7,2.23,50.8,
"COc1cc([C@H](OC)C(=O)Nc2nnc(N[C@@H]3CCN(c4cccnn4)C3)s2)ccc1F [Example 14(a), (2S)-2-(4-Fluoro-3-methoxy-phenyl)-2-methoxy-N-[5-[[(3R)-1-pyridazin-3-ylpyrrolidin-3-yl]amino]-1,3,4-thiadiazol-2-yl]acetamide]",15.1,0.78,25.5,
"CO[C@H](C(=O)Nc1nnc(N[C@@H]2CCN(c3cccnn3)C2)s1)c1cccc(OC(F)(F)F)c1 [Example 9(a), (2S)-2-Methoxy-N-[5-[[(3R)-1-pyridazin-3-ylpyrrolidin-3-yl]amino]-1,3,4-thiadiazol-2-yl]-2-[3-(trifluoromethoxy)phenyl]acetamide]",0.725,0.14,18.6,
"CCO[C@H](C(=O)Nc1nnc(N[C@@H]2CCN(c3cccnn3)C2)s1)c1ccc(F)cc1 [Example 13(a), (2S)-2-Ethoxy-2-(4-fluorophenyl)-N-[5-[[(3R)-1-pyridazin-3-ylpyrrolidin-3-yl]amino]-1,3,4-thiadiazol-2-yl]acetamide]",18.3,0.96,27,
"CCO[C@H](C(=O)Nc1nnc(N[C@@H]2CCN(c3nccnn3)C2)s1)c1ccc(F)c(OC)c1 [33(a), (2S)-2-ethoxy-2-(4-fluoro-3-methoxy-phenyl)-N-[5-[[(3R)-1-(1,2,4-triazin-3-yl)pyrrolidin-3-yl]amino]-1,3,4-thiadiazol-2-yl]acetamide]",168,7.13,50.2,
"COc1cccc([C@H](OC)C(=O)Nc2nnc(N[C@@H]3CCN(c4nccnn4)C3)s2)c1 [Example 4(a), (2S)-2-Methoxy-2-(3-methoxyphenyl)-N-[5-[[(3R)-1-(1,2,4-triazin-3-yl)pyrrolidin-3-yl]amino]-1,3,4-thiadiazol-2-yl]acetamide]",5.01,1.51,35.5,
"CCO[C@@H](C(=O)Nc1nnc(N[C@@H]2CCN(c3nccnn3)C2)s1)c1ccc(OC)cc1 [29(b), (2R)-2-ethoxy-2-(4-methoxyphenyl)-N-[5-[[(3R)-1-(1,2,4-triazin-3-yl)pyrrolidin-3-yl]amino]-1,3,4-thiadiazol-2-yl]acetamide]",1960,134,1370,
"CO[C@H](C(=O)Nc1nnc(N[C@@H]2CCN(c3nccnn3)C2)s1)c1cccc(OC(F)F)c1 [Example 6(a), (2S)-2-[3-(Difluoromethoxy)phenyl]-2-methoxy-N-[5-[[(3R)-1-(1,2,4-triazin-3-yl)pyrrolidin-3-yl]amino]-1,3,4-thiadiazol-2-yl]acetamide]",16.6,2.57,85.1,

# — US10040788B2, “1,3,4-thiadiazole compounds and their use in treating cancer” (AstraZeneca AB, priority 2014, dated 2018)
